{"source": "patent US20050288347A1", "about": "“Certain triazole-based compounds, compositions, and uses thereof” (priority 2004, published 2005)", "note": "Entries after “also recorded” stand apart in the source; their conditions may differ.", "data": [{"system": "protein kinase", "test": "HTS ATP-utilizing enzyme assay, off-chip mobility-shift format (Caliper HTS 250)", "assay_type": "biochemical, human", "conditions": "test compound 10 μM; active = activity greater than three-sigma from the mean of the predominately inactive population for that enzyme", "how_it_was_run": "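Kinase reactions ran 2.5 h at 20 to 22 °C with test compound at 10 μM, in a HEPES pH 7.5 master buffer containing Triton X-100 and BSA. Peptide substrate and phosphorylated product separated by mobility shift; inhibition normalized to DMSO (0%) and EDTA (100%) controls, with three-sigma thresholds for hits.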", "values": [{"smiles": "CSCCc1nnc(SCC(O)C(F)(F)F)[nH]1", "note": "(centres unmarked)", "protein kinase against which the compound exhibits inhibitory activity (Table 3)": "GSK3-α"}, {"smiles": "CCCN(CCC)C(=O)CSc1nnc(-c2ccccc2O)n1-c1ccccc1OC", "protein kinase against which the compound exhibits inhibitory activity (Table 3)": "KIT and AURORA-A and PKA"}, {"smiles": "CNC(=O)CSc1nnc(-c2ccccc2O)n1-c1ccccc1OC", "protein kinase against which the compound exhibits inhibitory activity (Table 3)": "AURORA-A"}, {"smiles": "NC(=O)CSc1nnc(-c2ccc(OC(F)(F)F)cc2)[nH]1", "protein kinase against which the compound exhibits inhibitory activity (Table 3)": "AURORA-A; also recorded: GSK3-β; also recorded: DYRK2"}, {"smiles": "COc1ccc(-n2c(SCc3nnc(-c4ccccc4)o3)nnc2-c2ccncc2)cc1", "protein kinase against which the compound exhibits inhibitory activity (Table 3)": "GSK3-α"}, {"smiles": "O=c1[nH]c(CSc2nnc(-c3ccccc3O)n2CCc2ccccc2)nc2ccccc12", "protein kinase against which the compound exhibits inhibitory activity (Table 3)": "AKT1"}, {"smiles": "COc1ccc(-c2nnc(SCc3nnc(-c4ccccc4)o3)n2C)cc1OC", "protein kinase against which the compound exhibits inhibitory activity (Table 3)": "GSK3-α; also recorded: CHEK2"}, {"smiles": "COc1ccc(-n2c(CNc3ccccc3Cl)nnc2SCc2ccc(Cl)cc2)cc1", "protein kinase against which the compound exhibits inhibitory activity (Table 3)": "MAPKALPK-2 and AKT1"}, {"smiles": "CCn1c(COc2ccccc2OC)nnc1SCc1ccc(Cl)cc1", "protein kinase against which the compound exhibits inhibitory activity (Table 3)": "CDK2-cyclinE"}, {"smiles": "CCn1c(COc2ccc(OC)cc2)nnc1SCc1ccc(Cl)cc1", "protein kinase against which the compound exhibits inhibitory activity (Table 3)": "CDK2-cyclinE"}, {"smiles": "CN1C=NN(c2cc3ccccc3cc2O)C1SCc1nnc(-c2ccccc2)o1", "note": "(centres unmarked)", "protein kinase against which the compound exhibits inhibitory activity (Table 3)": "GSK3-β; also recorded: GSK3-α"}, {"smiles": "COCCCn1c(SCc2ccccc2Cl)nnc1-c1ccc(C(C)(C)C)cc1", "protein kinase against which the compound exhibits inhibitory activity (Table 3)": "CDK1"}, {"smiles": "OC(CSc1nnc(-c2ccc(Cl)c(Cl)c2)[nH]1)C(F)(F)F", "note": "(centres unmarked)", "protein kinase against which the compound exhibits inhibitory activity (Table 3)": "AURORA-A; also recorded: FLT-3; also recorded: GSK3-β"}, {"smiles": "OCC(O)CSc1nnc(-c2ccc(OC(F)(F)F)cc2)[nH]1", "note": "(centres unmarked)", "protein kinase against which the compound exhibits inhibitory activity (Table 3)": "AURORA-A; also recorded: FLT-3; also recorded: DYRK2"}, {"smiles": "COc1ccccc1-n1c(SCCC(=O)O)nnc1C1CCCCC1", "protein kinase against which the compound exhibits inhibitory activity (Table 3)": "GSK3-α"}, {"smiles": "Clc1ccc(CSc2nnc(-c3ccncc3)n2Cc2ccco2)c(Cl)c1", "protein kinase against which the compound exhibits inhibitory activity (Table 3)": "MSK2 and MSK1 and AKT3"}, {"smiles": "Clc1ccc(CSc2nnc(-c3ccncc3)n2Cc2ccco2)cc1", "protein kinase against which the compound exhibits inhibitory activity (Table 3)": "MSK1 and MSK2 and AKT3"}, {"smiles": "COc1ccc(N)cc1Cc1nnc(SCc2c(Cl)cccc2Cl)n1-c1ccccc1", "protein kinase against which the compound exhibits inhibitory activity (Table 3)": "PDGFRR-α and FLT-3 and FYN"}, {"smiles": "COc1ccccc1-n1c(SCC(=O)Nc2cc(NC(=O)c3ccco3)ccc2C)nnc1-c1ccccc1O", "protein kinase against which the compound exhibits inhibitory activity (Table 3)": "AURORA-A"}, {"smiles": "CCOc1ccc(Nc2nc(Cc3nnc(SCc4cccnc4)n3CC)cs2)cc1", "protein kinase against which the compound exhibits inhibitory activity (Table 3)": "CHEK2; also recorded: AURORA-A"}, {"smiles": "CN(C)CCCSc1nnc(C2CCCC2)[nH]1", "protein kinase against which the compound exhibits inhibitory activity (Table 3)": "c-TAK1"}, {"smiles": "OCC(O)CSc1nnc(CCc2ccccc2)[nH]1", "note": "(centres unmarked)", "protein kinase against which the compound exhibits inhibitory activity (Table 3)": "GSK3-α"}, {"smiles": "CCn1c(CNc2ccc(C)cc2)nnc1SCc1ccc(Cl)c(Cl)c1", "protein kinase against which the compound exhibits inhibitory activity (Table 3)": "AURORA-A; also recorded: CDK2-cyclinE"}, {"smiles": "CCn1c(CNc2ccc(OC)cc2)nnc1SCc1ccc(Cl)cc1", "protein kinase against which the compound exhibits inhibitory activity (Table 3)": "PDGFRR-α and FYN("}, {"smiles": "COc1ccc(NCc2nnc(SCc3ccccc3)n2-c2ccc(OC)cc2)cc1", "protein kinase against which the compound exhibits inhibitory activity (Table 3)": "PDGFRR-α and FLT-3 and FYN"}, {"smiles": "COc1ccc(-n2c(CNc3ccc(C)cc3)nnc2SCc2ccccc2)cc1", "protein kinase against which the compound exhibits inhibitory activity (Table 3)": "FLT-3; also recorded: PDGFRR-α"}, {"smiles": "CCN(CC)S(=O)(=O)c1ccc(-c2nnc(SCc3nnc(-c4ccccc4)o3)n2CC)cc1", "protein kinase against which the compound exhibits inhibitory activity (Table 3)": "GSK3-α"}, {"smiles": "CN(C)CCCSc1nnc(-c2ccc(OC(F)(F)F)cc2)[nH]1", "protein kinase against which the compound exhibits inhibitory activity (Table 3)": "c-TAK1; also recorded: AURORA-A; also recorded: CHEK2"}, {"smiles": "COc1ccccc1-n1c(SCCC(=O)OCc2ccccc2)nnc1C1CCCCC1", "protein kinase against which the compound exhibits inhibitory activity (Table 3)": "AURORA-A"}]}]}
